Measured values from patent US9833497B2, “Human originated EGF domain proteins and use of the same” (CHENGDU SOURCEBIO LIMITED-LIABILITY COMPANY, priority 2013, dated 2017).

Experiments:
Assay type in all cases: cell-based
[1] = tested on: E. coli DH5α; experiment: Antibacterial activity: MIC and growth curve against E. coli DH5α in 96-well plate; conditions: minimal inhibitory concentration against E. coli DH5α; 96-well plate, 5×10^5 CFU/mL, 37° C., judged after 8 h
Procedure, shortened: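 Log-phase bacteria (OD600 ~0.5) resuspended in LB at 5×10^5 CFU/mL, exposed to recombinant protein at 50, 25, 12.5 μg/mL final in triplicate, 37 °C shaking at 175 rpm. OD600 read every 30 min; MIC is lowest concentration showing no growth.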

[2] = tested on: E. coli BL21; experiment: MIC against Gram-negative bacteria: E. coli BL21; conditions: for MIC (μg/mL) E. coli BL21 / MIC: 10 h cultivation at 37° C.
Procedure, shortened: (§1)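 Purified recombinant human EGF domain proteins are tested by broth dilution in LB against a 5×10^5 CFU/mL inoculum, with two-fold serial dilutions run in triplicate. Plates are incubated at 37° C with shaking, and the MIC is read as the lowest protein concentration without growth.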

[3] = tested on: Pseudomonas aeruginosa; experiment: MIC against Gram-negative bacteria: Pseudomonas aeruginosa; conditions: for MIC (μg/mL) P. aeruginosa / MIC: 10 h cultivation at 37° C., P. aeruginosa
Procedure, shortened: as §1

[4] = tested on: Klebsiella pneumonia; experiment: MIC against Gram-negative bacteria: Klebsiella pneumonia; conditions: for MIC (μg/mL) K. pneumonia / MIC: 10 h cultivation at 37° C., K. pneumonia
Procedure, shortened: as §1

[5] = tested on: Enterobacter cloacae; experiment: MIC against Gram-negative bacteria: Enterobacter cloacae; conditions: for MIC (μg/mL) E. cloacae / MIC: 10 h cultivation at 37° C., E. cloacae
Procedure, shortened: as §1

[6] = tested on: Aeromonas hydrophila; experiment: MIC against Gram-negative bacteria: Aeromonas hydrophila; conditions: for MIC (μg/mL) A. hydrophila / MIC: 10 h cultivation at 37° C., A. hydrophila
Procedure, shortened: as §1

[7] = tested on: Citrobacter diversus; experiment: MIC against Gram-negative bacteria: Citrobacter diversus; conditions: for MIC (μg/mL) C. diversus / MIC: 10 h cultivation at 37° C., C. diversus
Procedure, shortened: as §1

[8] = tested on: Moraxella catarrhalis; experiment: MIC against Gram-negative bacteria: Moraxella catarrhalis; conditions: for MIC (μg/mL) M. catarrhalis / MIC: 10 h cultivation at 37° C., M. catarrhalis
Procedure, shortened: as §1

[9] = tested on: Proteus mirabilis; experiment: MIC against Gram-negative bacteria: Proteus mirabilis; conditions: for MIC (μg/mL) P. mirabilis / MIC: 10 h cultivation at 37° C., P. mirabilis
Procedure, shortened: as §1

[10] = tested on: Proteus vulgaris; experiment: MIC against Gram-negative bacteria: Proteus vulgaris; conditions: for MIC (μg/mL) P. vulgaris / MIC: 10 h cultivation at 37° C., P. vulgaris
Procedure, shortened: as §1

[11] = tested on: Serratia marcescens; experiment: MIC against Gram-negative bacteria: Serratia marcescens; conditions: for MIC (μg/mL) S. marcescens / MIC: 10 h cultivation at 37° C., S. marcescens
Procedure, shortened: as §1

[12] = 96-well plate, 5×10^5 CFU/mL, 37° C., 10 h

PRT826 (FGVGCEHTCSCRNGGLCHASNGSCSCGLGWTGRHCE; listed as Homo sapiens)
MIC [1]: 12.5 µg/mL | MIC (μg/mL) E. coli BL21 ([2]; E. coli BL21, 5×10^5 CFU/mL): 50 µg/mL | MIC (μg/mL) P. aeruginosa ([3]; 5×10^5 CFU/mL): 25 µg/mL | MIC (μg/mL) K. pneumonia ([4]; 5×10^5 CFU/mL): 100 µg/mL | MIC (μg/mL) E. cloacae ([5]; 5×10^5 CFU/mL): 50 µg/mL | MIC (μg/mL) A. hydrophila ([6]; 5×10^5 CFU/mL): 12.5 µg/mL | MIC (μg/mL) C. diversus ([7]; 5×10^5 CFU/mL): 12.5 µg/mL | MIC (μg/mL) M. catarrhalis ([8]; 5×10^5 CFU/mL): 25 µg/mL | MIC (μg/mL) P. mirabilis ([9]; 5×10^5 CFU/mL): 12.5 µg/mL | MIC (μg/mL) P. vulgaris ([10]; 5×10^5 CFU/mL): 12.5 µg/mL | MIC (μg/mL) S. marcescens ([11]; 5×10^5 CFU/mL): 12.5 µg/mL

PRT597 (CDCNRAGTQKPICDPDTGMCRCREGVSGQRCDRCARGHSQEFPTCLQ; listed as Homo sapiens)
MIC [1]: 25 µg/mL | MIC E. coli BL21 [2, 12]: 12.5 µg/mL | MIC P. aeruginosa [3, 12]: 50 µg/mL | MIC K. pneumonia [4, 12]: 12.5 µg/mL | MIC E. cloacae [5, 12]: 25 µg/mL | MIC A. hydrophila [6, 12]: 50 µg/mL | MIC C. diversus [7, 12]: 25 µg/mL | MIC M. catarrhalis [8, 12]: 12.5 µg/mL | MIC P. mirabilis [9, 12]: 50 µg/mL | MIC P. vulgaris [10, 12]: 25 µg/mL | MIC S. marcescens [11, 12]: 12.5 µg/mL

PRT945 (QLDECASNPCQHGATCSDFIGGYRCECVPGYQGVNCE; listed as Homo sapiens)
MIC [1]: 25 µg/mL | MIC ([2]; E. coli BL21): 50 µg/mL | MIC [3]: 25 µg/mL | MIC [4]: 12.5 µg/mL | MIC [5]: 25 µg/mL | MIC [6]: 50 µg/mL | MIC [7]: 12.5 µg/mL | MIC [8]: 25 µg/mL | MIC [9]: 50 µg/mL | MIC [10]: 12.5 µg/mL | MIC [11]: 25 µg/mL

PRT190 (ECPLNYCRNGGTCVVEKNGPMCRCRQGWKGNRC; listed as Homo sapiens)
MIC [1]: 12.5 µg/mL | MIC (μg/mL) E. coli BL21 ([2]; E. coli BL21, 5×10^5 CFU/mL): 25 µg/mL | MIC (μg/mL) P. aeruginosa ([3]; 5×10^5 CFU/mL): 50 µg/mL | MIC (μg/mL) K. pneumonia ([4]; 5×10^5 CFU/mL): 25 µg/mL | MIC (μg/mL) E. cloacae ([5]; 5×10^5 CFU/mL): 12.5 µg/mL | MIC (μg/mL) A. hydrophila ([6]; 5×10^5 CFU/mL): 25 µg/mL | MIC (μg/mL) C. diversus ([7]; 5×10^5 CFU/mL): 12.5 µg/mL | MIC (μg/mL) M. catarrhalis ([8]; 5×10^5 CFU/mL): 12.5 µg/mL | MIC (μg/mL) P. mirabilis ([9]; 5×10^5 CFU/mL): 12.5 µg/mL | MIC (μg/mL) P. vulgaris ([10]; 5×10^5 CFU/mL): 12.5 µg/mL | MIC (μg/mL) S. marcescens ([11]; 5×10^5 CFU/mL): 12.5 µg/mL

PRT1251 (CAFVCADCGSGHCDFQSGRCLCSPGVHGPHCN; listed as Homo sapiens)
MIC [1]: 100 µg/mL | MIC against E. coli BL21 ([2]; E. coli BL21, 96-well plate, 5×10^5 CFU/mL, 37° C., 10 h): 25 µg/mL | MIC against P. aeruginosa ([3]; Pseudomonas aeruginosa, 96-well plate, 5×10^5 CFU/mL, 37° C., 10 h): 50 µg/mL | MIC against K. pneumonia ([4]; Klebsiella pneumonia, 96-well plate, 5×10^5 CFU/mL, 37° C., 10 h): 25 µg/mL | MIC against E. cloacae ([5]; Enterobacter cloacae, 96-well plate, 5×10^5 CFU/mL, 37° C., 10 h): 12.5 µg/mL | MIC against A. hydrophila ([6]; Aeromonas hydrophila, 96-well plate, 5×10^5 CFU/mL, 37° C., 10 h): 25 µg/mL | MIC against C. diversus ([7]; Citrobacter diversus, 96-well plate, 5×10^5 CFU/mL, 37° C., 10 h): 50 µg/mL | MIC against M. catarrhalis ([8]; Moraxella catarrhalis, 96-well plate, 5×10^5 CFU/mL, 37° C., 10 h): 25 µg/mL | MIC against P. mirabilis ([9]; Proteus mirabilis, 96-well plate, 5×10^5 CFU/mL, 37° C., 10 h): 12.5 µg/mL | MIC against P. vulgaris ([10]; Proteus vulgaris, 96-well plate, 5×10^5 CFU/mL, 37° C., 10 h): 25 µg/mL | MIC against S. marcescens ([11]; Serratia marcescens, 96-well plate, 5×10^5 CFU/mL, 37° C., 10 h): 50 µg/mL

PRT812 (YGKHCRKKCNCANRGRCHRLYGACLCDPGLYGRFCH; listed as Homo sapiens)
MIC [1]: 12.5 µg/mL | MIC (μg/mL) E. coli BL21 ([2]; E. coli BL21, 5×10^5 CFU/mL): 12.5 µg/mL | MIC (μg/mL) P. aeruginosa ([3]; 5×10^5 CFU/mL): 12.5 µg/mL | MIC (μg/mL) K. pneumonia ([4]; 5×10^5 CFU/mL): 25 µg/mL | MIC (μg/mL) E. cloacae ([5]; 5×10^5 CFU/mL): 50 µg/mL | MIC (μg/mL) A. hydrophila ([6]; 5×10^5 CFU/mL): 25 µg/mL | MIC (μg/mL) C. diversus ([7]; 5×10^5 CFU/mL): 12.5 µg/mL | MIC (μg/mL) M. catarrhalis ([8]; 5×10^5 CFU/mL): 50 µg/mL | MIC (μg/mL) P. mirabilis ([9]; 5×10^5 CFU/mL): 12.5 µg/mL | MIC (μg/mL) P. vulgaris ([10]; 5×10^5 CFU/mL): 50 µg/mL | MIC (μg/mL) S. marcescens ([11]; 5×10^5 CFU/mL): 12.5 µg/mL

PRT954 (NIDDCPNHRCQNGGVCVDGVNTYNCRCPPQWTGQFCT; listed as Homo sapiens)
MIC [1]: 50 µg/mL | MIC ([2]; E. coli BL21): 25 µg/mL | MIC [3]: 12.5 µg/mL | MIC [4]: 25 µg/mL | MIC [5]: 50 µg/mL | MIC [6]: 12.5 µg/mL | MIC [7]: 25 µg/mL | MIC [8]: 50 µg/mL | MIC [9]: 25 µg/mL | MIC [10]: 12.5 µg/mL | MIC [11]: 25 µg/mL
